{"source": "paper PMC5216351", "about": "“Obtaining control of cell surface functionalizations via Pre-targeting and Supramolecular host guest interactions” (Scientific Reports, 2017)", "key": {"MDAMB231 X4 cells": {"test_system": "MDAMB231 X4 cells", "test": "Host-guest dependent cell functionalization, confocal microscopy and flow cytometry", "format": "cell-based, human", "conditions": "peptide 10 μM, polymer 10 μM β-CD / 1 μM polymer, 1 h each at 0 °C; Fig. 3a", "description": "The receptor-mediated functionalization of cells was examined by confocal microscopy and flow cytometry (see also ‘Ac-TZ14011-Ad induced cell functionalization analyzed by flow cytometry’). For Confocal microscopy MDAMB231 × 4 cells (80,000 per well) were incubated with either Ac-TZ14011 (10 μM), Ac-TZ14011-Ad (10 μM), or none, for 1 h at 0 °C in 1 mL DMEM. […] Thereafter, the cells were washed twice with PBS and confocal images were acquired. All experiments were performed in 6-fold and for each condition per experiment at least 10 cells were included in the study. The Cy5 signal present on the cell in each sample was quantified to analyze differences between the amount of binding of the polymers to the cells when either, no peptide, Ac-TZ14011, or Ac-TZ14011-Ad was present. For normalization all results were divided by the average fluorescence value obtained when just the polymer was added. The significance of the obtained differences was determined by student T-test (two tailed, unpaired).\nBesides examining the receptor-mediated functionalization of cells by confocal microscopy (see ‘Ac-TZ14011-Ad induced cell functionalization analyzed by confocal microscopy’) the functionalization was also examined by flow cytometry to quantify the rate of functionalization. […] For data normalization, all results were divided by the average fluorescence value obtained when only the polymer was added. […]"}, "[1]": {"biological_target": "T1, chemokine receptor 4 (CXCR4) (Homo sapiens, UniProt P61073)", "T1 construct": "expressed in transfected cells; host or cells: MDAMB231 X4 (human MDA-MB-231 breast cancer cells, provided by Dr. Gary Luker)", "T1 sequence (P61073 whole entry)": "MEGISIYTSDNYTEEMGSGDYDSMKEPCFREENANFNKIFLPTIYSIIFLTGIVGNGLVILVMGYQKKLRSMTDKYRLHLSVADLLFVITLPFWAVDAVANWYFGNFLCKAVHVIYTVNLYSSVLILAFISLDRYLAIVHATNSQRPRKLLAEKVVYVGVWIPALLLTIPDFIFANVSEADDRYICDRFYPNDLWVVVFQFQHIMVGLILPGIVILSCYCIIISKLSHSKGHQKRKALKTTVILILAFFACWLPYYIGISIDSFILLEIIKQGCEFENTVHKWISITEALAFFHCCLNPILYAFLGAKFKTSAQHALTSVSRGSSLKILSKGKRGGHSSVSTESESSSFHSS", "test": "Flow cytometry competition binding on viable CXCR4 expressing cells (receptor affinity)", "conditions": "competition with Ac-TZ14011-MSAP (250 nM), 0.5 – 15,000 nM in PBS, MDAMB231 X4 cells, 1 h on ice, n = 2, One site-Fit Ki", "description": "Human MDAMB231 cells, transfected with human CXCR4 conjugated GFP (MDAMB231 X4), were kindly provided by Dr. Gary Luker (Center for Molecular Imaging, University of Michigan, USA).5 Native MDAMB231 cells with basal CXCR4 expression were used as control.6 Cells we re maintained in Dulbecco’s minimum essential medium (DMEM) enriched with 10% fetal bovine serum and 5 mL Penicillin/Streptomycin (1,000 units/mL Penicillin; 1,000 μg/mL Streptomycin) (all Life Technologies Inc.). Cell lines were cultured and maintained under standard conditions […]\nOne day prior the experiment, cells were trypsinized, seeded onto culture dishes with glass insert (ø35mm glass bottom dishes No. 15, poly-d-lysine coated, γ-Irradiated, MatTek corporation) and incubated overnight in 2 mL DMEM. […] The intrinsic GFP signal in the MDAMB231 X4 cells was measured with excitation at 488 nm and emission was collected at 500-525 nm.\nCy3 fluorescence was measured with excitation at 514 nm, emission was collected at 550-5 70 nm. Cy5 fluorescence was measured with excitation at 633 nm, emission was collected at 650-700 nm. Any Hoechst 33342 fluorescence was measured using 405 nm excitation and emission was collected at 420-470 nm. Images and signal quantifications were obtained using Leica Application Suite software, by applying the polygon function and calculating the average gray value/m2 for each cell. […]"}}, "note": "Positions of bridges follow the written chain, without caps; N, C: chain ends. Non-standard residues stand in square brackets, D forms with d. Residues, ends and D or L forms follow the SMILES beside them. *: point of attachment. Adamantane1carbonyl = O=C(C12CC3CC(CC(C3)C1)C2)*; 2Nal = N[C@@H](Cc1ccc2ccccc2c1)C(=O)O; Cit = NC(=O)NCCC[C@H](N)C(=O)O"}
{"compound": "CC(=O)N[C@@H](CCCNC(=N)N)C(=O)N[C@@H](CCCNC(=N)N)C(=O)N[C@@H](Cc1ccc2ccccc2c1)C(=O)N[C@H]1CSSC[C@@H](C(=O)N[C@@H](CCCNC(=N)N)C(N)=O)NC(=O)[C@H](CCCNC(N)=O)NC(=O)[C@H](CCCNC(=N)N)NC(=O)[C@H](Cc2ccc(O)cc2)NC(=O)[C@@H]2CCCN2C(=O)[C@@H](CCCCNC(=O)C23CC4CC(CC(C4)C2)C3)NC(=O)[C@H](CCCNC(=N)N)NC(=O)[C@H](CCCNC(N)=O)NC(=O)[C@H](Cc2ccc(O)cc2)NC1=O", "note": "[Ac-TZ14011-Ad] (Ac-RR[2Nal]CY[Cit]R[dK](Adamantane1carbonyl)PYR[Cit]CR-NH2; disulfide 4-13)", "values": [{"measurement": "effect of pre-targeting peptide on Cy5_0.5CD10PIBMA39 binding", "setting": "MDAMB231 X4 cells", "result": "further enhances this effect"}, {"measurement": "Kd", "setting": "[1]", "result": 56, "unit": "nM"}]}
